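48-hour exposure; five concentrations; linearly interpolated endpoints. At the TGI there is no net growth.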 Some results are limits rather than exact numbers.

One assay relates to RPMI-8226 leukemia. The assay is described as follows: NCI tumour cell line growth inhibition, 48 h.
Consider `O=C(/C=C(\O)c1ccccc1)C(=O)NNc1ccc([N+](=O)[O-])cc1[N+](=O)[O-]`, for which the TGI was 82.4 µM.

Another assay deals with PC-3 prostate. The assay is described as follows: NCI tumour cell line growth inhibition, 48 h.
For `O=[N+]([O-])c1ccc(-c2csc3nc(-c4ccccc4)nn23)cc1`, the TGI is over 100 µM.
As to `NC1CC(=O)c2sc(I)cc21` (stereo not drawn), the TGI was over 100 µM.
On the same count and under the same terms, in the case of `COc1cccc(N=Cc2cc3cc(Br)ccc3nc2Cl)c1` it was over 50 µM; in that of `O=C(/C=C(\O)c1ccccc1)C(=O)NNc1ccc([N+](=O)[O-])cc1[N+](=O)[O-]`, 44.9 µM.

In a further assay the test system is SK-OV-3 ovarian. The experiment in a line: NCI tumour cell line growth inhibition, 48 h.
`O=[N+]([O-])c1ccc(-c2csc3nc(-c4ccccc4)nn23)cc1` displayed a TGI of over 100 µM.
The same measure, in the same setting: in the case of `NC1CC(=O)c2sc(I)cc21` (stereo not drawn) it was over 100 µM; in that of `COc1cccc(N=Cc2cc3cc(Br)ccc3nc2Cl)c1`, over 50 µM.
Same read-out and setting: in the case of `O=C(/C=C(\O)c1ccccc1)C(=O)NNc1ccc([N+](=O)[O-])cc1[N+](=O)[O-]` it was 41.6 µM.

In the next assay the test system is HCT-15 colon. The assay is described as follows: NCI tumour cell line growth inhibition, 48 h.
Compound `O=[N+]([O-])c1ccc(-c2csc3nc(-c4ccccc4)nn23)cc1` registered a TGI of over 100 µM.
The same measure, in the same setting: in the case of `NC1CC(=O)c2sc(I)cc21` (stereo not drawn) it was over 100 µM.
The same measure, in the same setting: in the case of `COc1cccc(N=Cc2cc3cc(Br)ccc3nc2Cl)c1` it was over 50 µM; in that of `O=C(/C=C(\O)c1ccccc1)C(=O)NNc1ccc([N+](=O)[O-])cc1[N+](=O)[O-]`, 35.4 µM.

The test system of a further assay is ACHN renal. The experiment in a line: NCI tumour cell line growth inhibition, 48 h.
`O=[N+]([O-])c1ccc(-c2csc3nc(-c4ccccc4)nn23)cc1` had a TGI of over 100 µM.
The compound `NC1CC(=O)c2sc(I)cc21` (stereo not drawn) had a TGI of over 100 µM.
Same read-out and setting: in the case of `O=C(/C=C(\O)c1ccccc1)C(=O)NNc1ccc([N+](=O)[O-])cc1[N+](=O)[O-]` it was 66.5 µM.

The subject of a further assay is SNB-19 CNS. The assay is described as follows: NCI tumour cell line growth inhibition, 48 h.
As to `O=[N+]([O-])c1ccc(-c2csc3nc(-c4ccccc4)nn23)cc1`, the TGI was over 100 µM.
The same measure, in the same setting: in the case of `NC1CC(=O)c2sc(I)cc21` (stereo not drawn) it was over 100 µM; in that of `COc1cccc(N=Cc2cc3cc(Br)ccc3nc2Cl)c1`, over 50 µM.
On the same count and under the same terms, in the case of `O=C(/C=C(\O)c1ccccc1)C(=O)NNc1ccc([N+](=O)[O-])cc1[N+](=O)[O-]` it was 74.6 µM.

A further assay deals with U251 CNS. The assay is described as follows: NCI tumour cell line growth inhibition, 48 h.
The compound `O=[N+]([O-])c1ccc(-c2csc3nc(-c4ccccc4)nn23)cc1` registered a TGI of over 100 µM.
The same measure, in the same setting: in the case of `NC1CC(=O)c2sc(I)cc21` (stereo not drawn) it was over 100 µM.
On the same count and under the same terms, in the case of `O=C(/C=C(\O)c1ccccc1)C(=O)NNc1ccc([N+](=O)[O-])cc1[N+](=O)[O-]` it was 28.1 µM.

Another assay deals with T-47D breast. The experiment in a line: NCI tumour cell line growth inhibition, 48 h.
Consider `NC1CC(=O)c2sc(I)cc21` (stereo not drawn), for which the TGI was over 100 µM.
On the same count and under the same terms, in the case of `COc1cccc(N=Cc2cc3cc(Br)ccc3nc2Cl)c1` it was over 50 µM; in that of `O=C(/C=C(\O)c1ccccc1)C(=O)NNc1ccc([N+](=O)[O-])cc1[N+](=O)[O-]`, 48.5 µM.

Another assay deals with SN12C renal. The assay is described as follows: NCI tumour cell line growth inhibition, 48 h.
As for `O=[N+]([O-])c1ccc(-c2csc3nc(-c4ccccc4)nn23)cc1`, the TGI was over 100 µM.
On the same count and under the same terms, in the case of `NC1CC(=O)c2sc(I)cc21` (stereo not drawn) it was over 100 µM; in that of `COc1cccc(N=Cc2cc3cc(Br)ccc3nc2Cl)c1`, over 50 µM; in that of `O=C(/C=C(\O)c1ccccc1)C(=O)NNc1ccc([N+](=O)[O-])cc1[N+](=O)[O-]`, 31.8 µM.

The next assay concerns HCT-116 colon. The assay is described as follows: NCI tumour cell line growth inhibition, 48 h.
In the case of `O=[N+]([O-])c1ccc(-c2csc3nc(-c4ccccc4)nn23)cc1`, the TGI was over 100 µM.
In the case of `NC1CC(=O)c2sc(I)cc21` (stereo not drawn), the TGI was over 100 µM.
On the same count and under the same terms, in the case of `COc1cccc(N=Cc2cc3cc(Br)ccc3nc2Cl)c1` it was over 50 µM; in that of `O=C(/C=C(\O)c1ccccc1)C(=O)NNc1ccc([N+](=O)[O-])cc1[N+](=O)[O-]`, 27.4 µM.

The test system of a further assay is SR leukemia. The experiment in a line: NCI tumour cell line growth inhibition, 48 h.
As for `O=[N+]([O-])c1ccc(-c2csc3nc(-c4ccccc4)nn23)cc1`, the TGI is over 100 µM.
Same read-out and setting: in the case of `NC1CC(=O)c2sc(I)cc21` (stereo not drawn) it was over 100 µM; in that of `COc1cccc(N=Cc2cc3cc(Br)ccc3nc2Cl)c1`, 20.8 µM.
The same measure, in the same setting: in the case of `O=C(/C=C(\O)c1ccccc1)C(=O)NNc1ccc([N+](=O)[O-])cc1[N+](=O)[O-]` it was 43.6 µM.

In a further assay the test system is SW-620 colon. The experiment in a line: NCI tumour cell line growth inhibition, 48 h.
In turn, `O=[N+]([O-])c1ccc(-c2csc3nc(-c4ccccc4)nn23)cc1` registered a TGI of over 100 µM.
In turn, `NC1CC(=O)c2sc(I)cc21` (stereo not drawn) gave a TGI of over 100 µM.
On the same count and under the same terms, in the case of `COc1cccc(N=Cc2cc3cc(Br)ccc3nc2Cl)c1` it was over 50 µM.
Same read-out and setting: in the case of `O=C(/C=C(\O)c1ccccc1)C(=O)NNc1ccc([N+](=O)[O-])cc1[N+](=O)[O-]` it was 34 µM.

The test system of another assay is DU-145 prostate. The assay is described as follows: NCI tumour cell line growth inhibition, 48 h.
Turning to `O=[N+]([O-])c1ccc(-c2csc3nc(-c4ccccc4)nn23)cc1`, the TGI was over 100 µM.
Still for that read-out and setting: in the case of `NC1CC(=O)c2sc(I)cc21` (stereo not drawn) it was over 100 µM; in that of `COc1cccc(N=Cc2cc3cc(Br)ccc3nc2Cl)c1`, over 50 µM.
The compound `O=C(/C=C(\O)c1ccccc1)C(=O)NNc1ccc([N+](=O)[O-])cc1[N+](=O)[O-]` yielded a TGI of 32.9 µM.

Another assay relates to OVCAR-5 ovarian. The assay is described as follows: NCI tumour cell line growth inhibition, 48 h.
In turn, `O=[N+]([O-])c1ccc(-c2csc3nc(-c4ccccc4)nn23)cc1` registered a TGI of over 100 µM.
The compound `NC1CC(=O)c2sc(I)cc21` (stereo not drawn) yielded a TGI of over 100 µM.
Still for that read-out and setting: in the case of `COc1cccc(N=Cc2cc3cc(Br)ccc3nc2Cl)c1` it was over 50 µM; in that of `O=C(/C=C(\O)c1ccccc1)C(=O)NNc1ccc([N+](=O)[O-])cc1[N+](=O)[O-]`, 58.7 µM.

For another assay, the system named is TK-10 renal. The experiment in a line: NCI tumour cell line growth inhibition, 48 h.
With `O=[N+]([O-])c1ccc(-c2csc3nc(-c4ccccc4)nn23)cc1`, the TGI is over 100 µM.
Same read-out and setting: in the case of `NC1CC(=O)c2sc(I)cc21` (stereo not drawn) it was over 100 µM; in that of `O=C(/C=C(\O)c1ccccc1)C(=O)NNc1ccc([N+](=O)[O-])cc1[N+](=O)[O-]`, 49 µM.

The record behind these values is PubChem BioAssay (NCI).
